Measured values: PubChem BioAssay AID720632 (Broad Institute, 2013)
Activity calls are given as the source filed them. How the calls were made is not given here.

Target: Caspase-6 (Homo sapiens) (UniProt P55212)
Experiment: inhibition of CASP6 peptide cleavage – biochemical, VEID-R110 fluorescence, cherry-pick, dose response (AID 720632)
Conditions: caspase-6, VEID-R110 fluorogenic substrate; at 23.5 µM (top of the series)

Chain of Caspase-6 (Homo sapiens) (P55212 24-179 limits assumed): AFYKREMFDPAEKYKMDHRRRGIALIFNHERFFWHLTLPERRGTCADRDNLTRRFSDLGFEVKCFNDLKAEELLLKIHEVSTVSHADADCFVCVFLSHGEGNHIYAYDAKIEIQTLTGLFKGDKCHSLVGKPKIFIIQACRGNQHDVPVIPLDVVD
Chain of Caspase-6 (Homo sapiens) (P55212 194-293 limits assumed): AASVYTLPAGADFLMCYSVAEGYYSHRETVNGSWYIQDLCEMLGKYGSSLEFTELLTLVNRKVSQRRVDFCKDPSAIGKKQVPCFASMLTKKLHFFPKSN

Activity change, negative = inhibition, inactive:
CCC(=O)Nc1ccc2c(c1)OC[C@@H](C)N(C(=O)COC)C[C@H](C)[C@@H](OC)CN(C)C2=O

Same assay, conditions: caspase-6, VEID-R110 fluorogenic substrate; at 26 µM (top of the series)

Activity change, negative = inhibition, inactive:
COc1ccccc1C(=O)Nc1ccc2c(c1)OC[C@H](C)N(CC1CC1)C[C@H](C)[C@H](OC)CN(C)C2=O, C/C=C/c1ccc([C@@H]2[C@H](CO)N(C(=O)C3CCCC3)C23CN(S(C)(=O)=O)C3)cc1, CS(=O)(=O)c1ccc(Nc2nc(C(N)COCc3ccccc3)cs2)cc1 (stereo unspecified), CSc1ccccc1NC(=O)Nc1ccccc1, CO[C@@H]1CN(C)C(=O)c2ccc(NC(=O)c3ccccc3)cc2OC[C@H](C)N(C(=O)C2CC2)C[C@H]1C, C[C@@H]1CN([C@H](C)CO)C(=O)c2cc(Br)cnc2O[C@H]1CN(C)CC1CCCC1, O=C1NC2=C(C(=O)CCC2)C(c2cccc([N+](=O)[O-])c2)N1 (stereo unspecified), CSc1ccccc1OCc1cc(C(=O)N2CCc3c(Cl)cccc3C2)no1, CCCCn1c(N)c(N(CCC(C)C)C(=O)COC(=O)c2ccc([N+](=O)[O-])s2)c(=O)[nH]c1=O, O=C(CNc1cccc(S(=O)(=O)N2CCCC2)c1)Nc1cccc(Br)c1, Cn1c(CSCCOc2ccccc2)n[nH]c1=S, S=c1[nH]cc(-c2ccccc2)n1-c1cccc(Cl)c1, O=C(COC(=O)c1ccc([N+](=O)[O-])o1)Nc1ccc(F)cc1, Cc1cc(C)c(NC(=O)COC(=O)c2ccc([N+](=O)[O-])s2)c(C)c1, CO[C@H]1CN(C)C(=O)c2ccc(NC(=O)C3CC3)cc2OC[C@@H](C)N(CC2CCOCC2)C[C@@H]1C, COc1cc(NC(=O)c2cccnc2)c(Cl)cc1NC(=O)c1ccccc1, O=C(N/N=C/c1coc2ccccc2c1=O)c1cc(Br)ccc1O, CSCCC(NS(=O)(=O)c1ccccc1F)C(=O)NCC(C)(C)N1CCOCC1 (stereo unspecified), O=C(Cc1ccc([N+](=O)[O-])cc1)c1c(O)cc(O)cc1O, COc1ccc(C(=O)N2CCN(CCCc3ccccc3)CC2)cc1OC, CCN(C(=O)COC(=O)CNC(=O)c1ccc2ccccc2c1)C1CCS(=O)(=O)C1 (stereo unspecified), CCC(NS(=O)(=O)c1ccc(C)cc1)C(=O)N1CCOCCOCCOCC1 (stereo unspecified), O=C(O)C[C@H]1CC[C@H]2[C@@H](COC[C@H](O)CN2S(=O)(=O)c2ccc(Oc3ccccc3)cc2)O1, CCOC(=O)[C@H]1[C@H]2COc3ccc(Cl)cc3[C@@H]2N2C(=O)CN(Cc3ccc(C)cc3)C(=O)[C@@]12C, CN(CC(=O)Nc1ccccc1Cl)C(=O)COC(=O)c1cccs1, Cc1ccc(S(=O)(=O)n2c(C)nc3ccccc32)cc1, Cc1cc(C)cc(N(CC(=O)N2CCCCCC2)S(C)(=O)=O)c1, Cc1nc2ccccc2c(=O)n1-c1ccc(NS(=O)(=O)c2ccc(F)cc2F)cc1, Cc1ccc(C)c(OCCC(=O)N2CCN(S(=O)(=O)c3cc(F)ccc3F)CC2)c1, CN1CCN(CC(=O)Nc2ccc(Cl)cc2Cl)CC1, O=C(N/N=C/c1cccnc1)c1cc(O)c(O)c(O)c1, Cc1csc(=O)n1CC(=O)OCC(=O)NCc1ccc(F)cc1, O=C(NC(=S)NNS(=O)(=O)c1ccccc1)c1ccccc1[N+](=O)[O-], COc1ccc(S(=O)(=O)N2CCOCC2)cc1C(=O)NCC(c1ccccc1)c1ccccc1, CN1c2ccccc2Sc2cc(N)ccc21, CCCC(=O)Nc1ccc2c(c1)OC[C@@H](C)N(Cc1ccc(F)cc1)C[C@@H](C)[C@@H](OC)CN(C)C2=O, COc1cc(OC)c(NS(=O)(=O)c2c(C)[nH]c(=O)[nH]c2=O)cc1Cl, O=C(Nc1ccc2c(c1)[C@H]1C[C@H](CC(=O)N3CCCCC3)O[C@@H](CO)[C@H]1O2)Nc1ccccc1F, Cc1ccc(NC(=O)CCC(=O)NNC(=O)COc2ccccc2)c(C)c1, C=CCOc1cccn2c(N(C=O)Cc3ccccc3)c(CC)nc12, COc1ccc(CN=C(N)N=C(N)N)cc1Cl, COc1cccc(S(=O)(=O)N2C[C@@H]3N[C@H](C2)C3c2ccc(-c3ccccc3C)cc2)c1 (stereo partly specified), O=C(NC1CCCCC1)C(c1ccnc2ccccc12)N1CCc2ccccc2C1 (stereo unspecified), Cc1cccc(-n2c(C)nc3cc(C(=O)NCCN4CCOCC4)ccc32)c1, O=C(COC(=O)c1ccccc1OCc1ccccc1Cl)NC1CCS(=O)(=O)C1 (stereo unspecified), CC(C)CCn1c(=O)c2ccccc2n2c(CCC(=O)NCC3CCCO3)nnc12 (stereo unspecified), COc1cc2[nH]c(Cl)c([N+](=O)[O-])c2cc1OC, O=C(CCCn1c(=S)[nH]c2cc3c(cc2c1=O)OCO3)N1CCN(c2ccc(Cl)cc2)CC1, CCN(C(=O)COC(=O)c1oc2ccccc2c1C)c1c(N)n(Cc2ccccc2)c(=O)[nH]c1=O, CC(=O)Nc1cccc(NC(=O)c2cc([N+](=O)[O-])ccc2N2CCCCC2)c1, CCCN1C[C@@H](C)[C@@H](OC)CN(C)C(=O)c2ccc(NC(=O)c3ccccc3)cc2OC[C@H]1C, CCCN1C[C@H](C)[C@H](OC)CN(C)C(=O)c2ccc(NC(=O)CC)cc2OC[C@@H]1C, CCCC(=O)Nc1ccc2c(c1)OC[C@H](C)N(Cc1ccc(F)cc1)C[C@@H](C)[C@H](OC)CN(C)C2=O, O=C(C[C@H]1C=C[C@H](NC(=O)c2ccccc2)[C@H](CO)O1)NCCc1ccncc1, CCN=c1sc(C(=O)Nc2ccccc2)c(C)n1CC, NNC(=O)CC1=NNC(=O)C1, O=C(NCC1COc2ccccc2O1)c1ccc(F)c(S(=O)(=O)N2CCOCC2)c1 (stereo unspecified), COc1ccc(NC(=O)Nc2ccccc2F)c([N+](=O)[O-])c1, CCCCOc1ccc(C(=O)OCC(=O)N2CCOCC2)cc1, O=C(Nc1cccc(-c2ccccc2)c1)N1CCN(C(=O)Nc2cccc(-c3ccccc3)c2)CC1, COCC(=O)Nc1ccc2c(c1)OC[C@@H](C)N(CC1CC1)C[C@H](C)[C@H](OC)CN(C)C2=O, CCC(=O)Nc1ccc2c(c1)OC[C@@H](C)N(C(=O)CC)C[C@@H](C)[C@@H](OC)CN(C)C2=O, COc1ccccc1N(Cc1ccccc1)S(=O)(=O)c1cccc(C(=O)Nc2ccccn2)c1, Cn1c(SCCOc2ccccc2Cl)nnc1-c1ccncc1, CCC(=O)Nc1c(C#N)c2nc3ccccc3nc2n1-c1ccc(C)cc1, O=C(N/N=C/C1CC=CCC1)c1ccc(Cl)cc1O (stereo unspecified), CCC(=O)N1CCC1(C)C(=O)Nc1ccc2c(c1)CCN2C(C)=O (stereo unspecified), CCCN1C[C@@H](C)[C@@H](OC)CN(C)C(=O)c2ccc(NC(=O)CC)cc2OC[C@H]1C, O=C(CNC(=O)c1ccccc1F)N/N=C/c1ccc2c(c1)OCO2, Cc1ccc(S(=O)(=O)N(CC(=O)Nc2ccccc2C(=O)O)c2cccc(Cl)c2C)cc1, CC(C)CNC(=O)C1(C)CCCCCN1C(=O)c1cccnc1 (stereo unspecified), O=C1CC(NS(=O)(=O)c2cc(F)ccc2F)CN1c1cccc(F)c1 (stereo unspecified), Oc1c(CN2CCCCC2)ccc2cccnc12, O=C(CCCn1c(=S)[nH]c2cc3c(cc2c1=O)OCO3)N1CCN(c2ccc(F)cc2)CC1, Oc1cc(Nc2cccnc2)cc2cccnc12
